From paper PMC10496123, “Potent Antifungal Activity of Penta-O-galloyl-β-D-Glucose against Drug-Resistant Candida albicans, Candida auris, and Other Non-albicans Candida Species” (ACS Infectious Diseases, 2023)
Converted amounts (≈) assume the structure as drawn.

What was measured:
[1] = tested on: Candida parapsilosis; experiment: Growth inhibition by CLSI microbroth dilution; assay type: cell-based; conditions: 48 h, >90% growth inhibition
[2] = tested on: Candida albicans; experiment: Growth inhibition by CLSI microbroth dilution; assay type: cell-based; conditions: Candida albicans, >90% growth inhibition, 48 h
[3] = tested on: Candida glabrata; experiment: Growth inhibition by CLSI microbroth dilution; assay type: cell-based; conditions: Nakaseomyces glabratus, 48 h, >90% growth inhibition
[4] = tested on: Candida auris; experiment: Growth inhibition by CLSI microbroth dilution; assay type: cell-based; conditions: Candidozyma auris, 48 h
[5] = tested on: Candida albicans; design: method as in PMID 15790671; conditions: addition of both Fe^2+ and Fe^3+; cited from earlier work
[6] = tested on: C. albicans; design: method as in PMID 12760852; conditions: 6 months of treatment in vitro; cited from earlier work
[7] = tested on: C. albicans wild type (CAF2-1) and cdr1Δ/Δ cdr2Δ/Δ mdr1Δ/Δ flu1Δ/Δ; experiment: microbe, parasite or virus in culture; assay type: cell-based, Candida albicans; conditions: for MIC90: Candida albicans, 72 h, RPMI-1640, 72 h, 30 °C, OD600
[8] = tested on: C. albicans wild type (SN95, SN152) and ire1Δ/Δ, hap43Δ/Δ, rim101Δ/Δ; experiment: microbe, parasite or virus in culture; assay type: cell-based, Candida albicans; conditions: mutants versus wild type
[9] = strain AR Bank #0381, >90% growth inhibition
[10] = strain AR Bank #0387, >90% growth inhibition
[11] = strain AR Bank #0390, >90% growth inhibition

Row | Compound | MIC ([1]; strain AR Bank #0335) [µg/mL] | MIC ([1]; strain AR Bank #0337) [µg/mL] | MIC ([1]; strain AR Bank #0338) [µg/mL] | MIC ([1]; strain AR Bank #0339) [µg/mL] | MIC ([2]; ATCC90028, strain ATCC 90028) [µg/mL] | MIC ([2]; strain MH12) [µg/mL] | MIC ([3]; strain AR Bank #0325) [µg/mL] | MIC ([3]; strain AR Bank #0326) [µg/mL] | MIC [4, 9] [µg/mL] | MIC [4, 10] [µg/mL] | MIC [4, 11] [µg/mL] | Antifungal activity on addition of iron [5] | Development of resistance [6] | MIC90 ([7]; Wild type (CAF2-1)) [µg/mL] | MIC90 ([7]; cdr1Δ/Δ cdr2Δ/Δ mdr1Δ/Δ flu1Δ/Δ) [µg/mL] | Effect of absence of major efflux pumps (CDR1, CDR2, FLU1, MDR1) on sensitivity ([7]; mutant versus wild type) | Effect of deletion of IRE1, HAP43 and RIM101 on sensitivity [8]
1 | C[C@@H]1[C@H](O)[C@@H](C)/C=C/C=C/C=C/C=C/C=C/C=C/C=C/[C@H](O[C@@H]2O[C@H](C)[C@@H](O)[C@H](N)[C@@H]2O)C[C@@H]2O[C@](O)(C[C@@H](O)C[C@@H](O)[C@H](O)CC[C@@H](O)C[C@@H](O)CC(=O)O[C@H]1C)C[C@H](O)[C@H]2C(=O)O [AMB, amphotericin B] | 1 (≈ 1.08 µM) | 1 (≈ 1.08 µM) | 1 (≈ 1.08 µM) | 2 (≈ 2.16 µM) | 1 (≈ 1.08 µM) | 1 (≈ 1.08 µM) | 1 (≈ 1.08 µM) | 1 (≈ 1.08 µM) | 1 (≈ 1.08 µM) | 0.5 (≈ 0.541 µM) | 2 (≈ 2.16 µM) | – | – | – | – | – | –
2 | Cc1cc(C2CCCCC2)n(O)c(=O)c1 [ciclopirox] | – | – | – | – | – | – | – | – | – | – | – | abrogated | did not develop | – | – | – | –
3 | OC(Cn1cncn1)(Cn1cncn1)c1ccc(F)cc1F [FLC, fluconazole] | > 8 | > 8 | > 8 | > 8 | 0.25 (≈ 0.816 µM) | > 8 | > 8 | 4 (≈ 13.1 µM) | 4 (≈ 13.1 µM) | 1 (≈ 3.27 µM) | > 8 | – | – | > 5 | 0.16 (≈ 0.522 µM) | hypersensitivity | –
4 | CC(=O)N1CCN(c2ccc(OCC3COC(Cn4ccnc4)(c4ccc(Cl)cc4Cl)O3)cc2)CC1 (stereo not drawn) [KTC, ketoconazole] | 4 (≈ 7.53 µM) | 2 (≈ 3.76 µM) | 0.5 (≈ 0.941 µM) | 0.25 (≈ 0.47 µM) | < 0.0039 | 1 (≈ 1.88 µM) | 4 (≈ 7.53 µM) | 0.25 (≈ 0.47 µM) | < 0.0039 | < 0.0039 | 0.5 (≈ 0.941 µM) | – | – | – | – | – | –
5 | bathophenanthrolinedisulfonate [BPS, reference compound] | – | – | – | – | – | – | – | – | – | – | – | – | – | – | – | – | hypersensitive
